Values quoted from earlier work as cited in Sander's compilation of Henry's law constants (doi:10.1002/etc.5620190905).

test: Henry solubility constant Hcp at 298.15 K (mol/(m3 Pa)); settings: reference: Armbrust (2000); cited value

In order of rising “Henry solubility constant Hcp” value:
1. CCOP(=S)(OCC)Oc1nc(Cl)c(Cl)cc1Cl [chlorpyrifos]  1.4
2. CCN(CC)C(=O)SCc1ccc(Cl)cc1 [S-(4-chlorobenzyl) diethylthiocarbamate]  37
3. N#Cc1c(Cl)c(Cl)c(Cl)c(C#N)c1Cl [2,4,5,6-tetrachloro-1,3-dicyanobenzene]  45
4. CC(C)Oc1cc(-n2nc(C(C)(C)C)oc2=O)c(Cl)cc1Cl [oxadiazon]  140
5. O=C(O)COc1nc(Cl)c(Cl)cc1Cl [[(3,5,6-trichloro-2-pyridinyl)oxy]-acetic acid]  12000
6. COc1c(Cl)ccc(Cl)c1C(=O)O [dicamba]  22000
7. COc1nc(C)nc(NC(=O)NS(=O)(=O)c2ccccc2Cl)n1 [chlorsulfuron]  150000
8. O=C(O)COc1ccc(Cl)cc1Cl [(2,4-dichlorophenoxy)-ethanoic acid]  5.5e+06
9. O=[N+]([O-])/N=C1\NCCN1Cc1ccc(Cl)nc1 [imidacloprid]  4.9e+09
10. COC(=O)c1ccccc1CS(=O)(=O)NC(=O)Nc1nc(OC)cc(OC)n1 [bensulfuron methyl]  7e+10
11. COC(=O)c1ccccc1S(=O)(=O)NC(=O)Nc1nc(C)cc(C)n1 [sulfometuron methyl]  8.2e+12
